Patent publication US20070259354A1, “OPTIMIZED TRPM8 NUCLEIC ACID SEQUENCES AND THEIR USE IN CELL BASED ASSAYS AND TEST KITS TO IDENTIFY TRPM8 MODULATORS” (Senomyx, Inc., priority 2005, published 2007)
Like-named read-outs stand apart in the source and are kept apart here.

Tests used:
[1] = Human taste test, cooling intensity; type: in vivo; conditions: five human panelists, two trials, Tukey's HSD 5% risk level
Protocol: In this experiment the cooling effect of a putative coolant, SID 391254, identified using the subject assays was analyzed in human taste tests. Particularly, the cooling intensity for three test samples was tested in five human volunteer panelists in two trials. […] The tests were conducted in booths with the data recorded using Compusense software. Additionally, these experiments further included the administration of WS-3, a known coolant (positive control).
For both samples containing the known or the putative cooling compound (WS-3 and SID 391254 respectively), these compounds were contained in low sodium buffer (LSB) and 0.1% ethanol.
This experiment compared the cooling effect of another putative coolant compound (SID 10135651) identified using the described assays. […] As with the prior example, significant differences between the known and putative coolant compound vis-à-vis the control were calculated using Tukey's HSD (5% risk level). […] These tests were again conducted in booths with the data recorded using Compusense software.
The coolant effect of another putative cooling compound (SID 7292725) identified using the subject screening assays was tested in human taste tests. Again cooling intensity scores were determined based on results in 5 human taste panelists in two trials. Significant differences were again calculated using Tukey's HSD (5% risk level).

[2] = molecular target: T1, rat TRPM8 (Rattus norvegicus, UniProt Q8R455); assay: Voltage clamp electrophysiology in Xenopus oocytes expressing rat TRPM8 (OpusXpress); type: cell-based; conditions: for peak agonist-induced currents: 4-6 independent oocytes; for peak agonist-induced currents / desensitization of agonist-induced currents: one day post-injection; for desensitization of agonist-induced currents: continued presence of agonist; for specific activation of rat TRPM8 expressed in oocytes: no responses in uninjected control oocytes
T1 construct: In the assays exemplified herein, cells which express the full-length TRPM8 polypeptide are used in high throughput assays; expressed in transfected cells; host or cells: Xenopus oocytes microinjected with rat TRPM8 cRNA
T1 sequence (Q8R455 whole entry): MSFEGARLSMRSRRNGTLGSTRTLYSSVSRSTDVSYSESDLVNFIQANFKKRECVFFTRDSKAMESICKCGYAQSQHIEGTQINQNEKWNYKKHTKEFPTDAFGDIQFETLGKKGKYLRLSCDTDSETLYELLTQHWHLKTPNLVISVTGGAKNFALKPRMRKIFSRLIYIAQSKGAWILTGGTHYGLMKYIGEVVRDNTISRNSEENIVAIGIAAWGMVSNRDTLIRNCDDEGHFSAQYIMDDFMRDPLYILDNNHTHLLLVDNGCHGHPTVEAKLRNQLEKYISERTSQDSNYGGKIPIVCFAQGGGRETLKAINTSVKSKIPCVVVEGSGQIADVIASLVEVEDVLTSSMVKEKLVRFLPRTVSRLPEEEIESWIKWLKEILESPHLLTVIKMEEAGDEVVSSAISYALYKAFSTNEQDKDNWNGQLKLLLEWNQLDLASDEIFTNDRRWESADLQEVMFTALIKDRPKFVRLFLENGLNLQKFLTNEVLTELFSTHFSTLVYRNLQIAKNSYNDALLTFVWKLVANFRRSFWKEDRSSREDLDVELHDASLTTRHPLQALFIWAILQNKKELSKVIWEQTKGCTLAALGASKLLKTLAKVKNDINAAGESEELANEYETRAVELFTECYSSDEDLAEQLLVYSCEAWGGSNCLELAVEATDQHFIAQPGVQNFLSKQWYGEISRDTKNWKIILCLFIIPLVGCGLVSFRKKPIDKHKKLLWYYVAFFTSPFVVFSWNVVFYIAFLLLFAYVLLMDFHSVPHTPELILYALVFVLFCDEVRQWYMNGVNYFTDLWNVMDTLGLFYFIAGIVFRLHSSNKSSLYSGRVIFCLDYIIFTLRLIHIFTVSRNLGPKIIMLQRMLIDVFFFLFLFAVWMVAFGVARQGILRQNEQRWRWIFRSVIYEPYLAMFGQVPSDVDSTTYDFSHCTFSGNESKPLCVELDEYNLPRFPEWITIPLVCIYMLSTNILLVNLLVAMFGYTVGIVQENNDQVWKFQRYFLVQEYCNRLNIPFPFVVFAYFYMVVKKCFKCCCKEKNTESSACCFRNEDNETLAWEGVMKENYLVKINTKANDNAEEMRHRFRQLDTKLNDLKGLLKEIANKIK
Protocol: Xenopus oocytes are microinjected with a TRPM8 nucleic acid sequence according to the invention.
The microinjected oocytes are voltage-clamped at around 60 mV using the OpusXpress 600A one day post-injection and treated with either buffer (control) or a potential or known TRPM8 modulator contained in same buffer at a fixed concentration or over a range of different concentrations (dose-escalation).
The current is measured for said buffer-treated or putative TRPM8 modulator-treated oocytes over a specific time period. Additionally, the current response is measured for oocytes treated with the same buffer which are not injected with a TRPM8 nucleic acid sequence (negative control).
The current response for said oocytes is compared in order to determine the effect (if any) of said potential TRPM8 modulator compound on TRPM8 activity and whether said effect is dose-specific.
In this experiment an electrophysiological assay was conducted using oocytes that express rat TRPM8. Specifically, oocytes were microinjected with 10 ng rat TRPM8 cRNA and were voltage-clamped at ˜60 mV using the OpusXpress 600A one day post-injection and treated with buffer and menthol (left traces) or icilin (right traces).
Oocytes were microinjected with 10 ng rat TRPM8 […] and voltage-clamped at ˜60 mV using the OpusXpress 6000A one day post-injection and then treated with the compounds shown in the FIG. 6. In the Figure, peak agonist-induced currents are summarized for 4-6 independent oocytes.
In these experiments, oocytes were again injected with 2 ng rat TRPM8 cRNA (as shown in left panel of FIG. 7) or uninjected (right panel) and currents were measured from ˜80 mV to 100 mV (in 20 mV increments) in the presence of buffer (control; green curves) or 100 μM menthol (red curves) four days post-injection. The blue curves in FIG. 7 depict menthol-specific currents obtained by subtracting control (green) from menthol (red) curves.
In this experiment, oocytes were again microinjected with 10 ng rat TRPM8 cRNA, voltage-clamped at ˜60 mV and currents measured 2-3 days post-injection.

[3] = molecular target: T1, rat TRPM8; assay: Fluorimetric calcium imaging (FLIPR), HEK293 cells transiently transfected with rat TRPM8; type: cell-based; conditions: chilled stimulus compared with warmer stimulus
Protocol: HEK-293 cells (about 50-70% confluency) contained in 10 cm dishes are transfected with 5 μg of TRPM8 DNA and pcDNA3 and 2 μg of RFP plasmids using TransH293.
After 24 hours, the cells are split into 384-well plates at ˜50,000 cells/well.
At 48 hours post-transfection the cells are loaded with 4 μM Fluo-3-AM 3 AM in HBSS for 30 minutes at 37° C.
The cells are then washed twice within HBSS containing 2.5 mM Probenicid and returned to 37° C. for 15 minutes.
Compound plates are prepared in HBSS at twice the final concentration and kept at 37° C. to insure that rTRPM8 is not activated by a decrease in ambient temperature during stimulation (TRPM8 is activated by temperatures<22° C.).
HEK293 cells are transfected with a plasmid encoding the rat TRPM8 cDNA (in pcDNA3.1) and are seeded into 384-well plates. 48 hours later, cells are loaded with Fluo-3-AM. Cells are then stimulated with various stimuli as shown in FIG. 2 and fluorescence intensity in each well measured using a Fluorimetric Imaging Plate Reader (FLIPR). […]
HEK293 cells transfected with a plasmid encoding rat TRPM8 cDNA contained in pcDNA3.1 were seeded into 384-well plates. […] Cells were then stimulated with the stimuli shown in FIG. 3 and fluorescence intensity in each well measured using a Fluorimetric Imaging Plate Reader (FLIPR). […]

[4] = molecular target: T1, rat TRPM8; conditions: 22-24° C., McKemy et al. Nature 416:52-58 (2002); read-out: reported EC50 in oocytes; cited from earlier work

Structure (SMILES) | cooling intensity compared with negative control (LSB and 0.1% ethanol) [1] | peak agonist-induced currents [2] | desensitization of agonist-induced currents [2] | specific activation of rat TRPM8 expressed in oocytes [2] | potency of chilled versus warmer agent at activating TRPM8 [3] | current/voltage (I/V) curve of menthol-specific currents ([2]; 100 μM menthol, 2 ng cRNA, four days post-injection) | EC50 ([2]; oocytes, 10 ng rat TRPM8 cRNA, 19.5° C.) | EC50 [4]
CCNC(=O)C1CC(C)CCC1C(C)C (centres unmarked) [WS-3] | substantially higher cooling intensity | – | – | – | – | – | – | –
CC12CCC(CC1)C(C)(C)O2 [eucalyptol] | – | small peak currents | – | – | – | – | – | –
O=C1NC(c2cccc([N+](=O)[O-])c2)=CCN1c1ccccc1O [icilin] | – | large peak currents | completely desensitize | specifically activate | more potent | – | – | –
CC1CCC(C(C)C)C(O)C1 (centres unmarked) [menthol] | – | large peak currents | partially-desensitize | specifically activate | more potent | outward rectification | 29.6 µM | 67 µM
C [methane] | – | small peak currents | – | – | – | – | – | –
